From patent publication US10294202B2, “Pyrrolidinones as herbicides” (FMC Corporation, priority 2013, dated 2019)

Assays:
barnyardgrass [1] = assay: Test A pre-/postemergence herbicide test; type: in vivo, Echinochloa crus-galli
Summary of the method: (§1)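 Formulated compound (non-phytotoxic solvent, surfactant) sprayed pre- onto soil of seeded loam/sand pots or post- onto seedlings at 1–2 leaves; ~10 d greenhouse; 0–100 visual control rating versus untreated.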

crabgrass, large = assay: Test A pre-/postemergence herbicide test; type: in vivo, Digitaria sanguinalis
Summary of the method: as §1

giant foxtail = assay: Test A pre-/postemergence herbicide test; type: in vivo, Setaria faberii
Summary of the method: as §1

morningglory = assay: Test A pre-/postemergence herbicide test; type: in vivo, Ipomoea spp.
Summary of the method: as §1

pigweed = assay: Test A pre-/postemergence herbicide test; type: in vivo, Amaranthus retroflexus
Summary of the method: as §1

velvetleaf = assay: Test A pre-/postemergence herbicide test; type: in vivo, Abutilon theophrasti
Summary of the method: as §1

wheat = assay: Test A pre-/postemergence herbicide test; type: in vivo, Triticum aestivum
Summary of the method: as §1

corn = assay: Test A pre-/postemergence herbicide test; type: in vivo, Zea mays
Summary of the method: as §1

rice = assay: Test B flooded paddy test; type: in vivo, Oryza sativa; settings: 1000 g ai/ha, Flood; scale of 0 to 100 where 0 is no effect and 100 is complete control
Summary of the method: (§2)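 2-leaf plants; flood 3 cm over soil; compound into paddy water; depth held. Greenhouse 13–15 d. Visual rating vs controls, 0 (no effect) to 100 (complete control); dash = not tested.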

sedge, umbrella = assay: Test B flooded paddy test; type: in vivo, Cyperus difformis; settings: 1000 g ai/ha, Flood; scale of 0 to 100 where 0 is no effect and 100 is complete control
Summary of the method: as §2

ducksalad = assay: Test B flooded paddy test; type: in vivo, Heteranthera limosa; settings: 1000 g ai/ha, Flood; scale of 0 to 100 where 0 is no effect and 100 is complete control
Summary of the method: as §2

barnyardgrass [2] = assay: Test B flooded paddy test; type: in vivo, Echinochloa crus-galli; settings: 1000 g ai/ha, Flood; scale of 0 to 100 where 0 is no effect and 100 is complete control
Summary of the method: as §2

[3] = Postemergence, 1000 g ai/ha, 0 to 100 scale (0 no effect, 100 complete control)
[4] = Preemergence, 1000 g ai/ha, visual rating on 0 to 100 scale (0 no effect, 100 complete control), approx. 10 days
[5] = preemergence, 1000 g ai/ha, 0 to 100 scale
[6] = 125 g ai/ha, visual rating, 0 to 100 scale, 0 no effect, 100 complete control, approximately 10 days, preemergence
[7] = Postemergence, 125 g ai/ha, 0 to 100 scale, 0 no effect, 100 complete control
[8] = Postemergence, 500 g ai/ha, 0 to 100 scale (0 no effect, 100 complete control)
[9] = preemergence, 500 g ai/ha, 0 to 100 scale

Cc1c(Cl)cccc1NC(=O)C1C(=O)NCC1c1ccc(F)c(F)c1 (racemic) [Compound 100]
0: Plant response rating, Morningglory (morningglory; [3]) | Plant response rating, Morningglory (morningglory; [4]) | Plant response rating, Pigweed (pigweed; [3]) | Plant response rating, Pigweed (pigweed; [4]) | Plant response rating, Velvetleaf (velvetleaf; [3]) | Plant response rating, Velvetleaf (velvetleaf; [4]) | Plant response rating, Rice (rice) | Plant response rating, Sedge, Umbrella (sedge, umbrella)
30: Plant response rating, Wheat (wheat; [3])
80: Plant response rating, Barnyardgrass (barnyardgrass [1]; [3]) | Plant response rating, Foxtail, Giant (giant foxtail; [3])
75: Plant response rating, Ducksalad (ducksalad)
40: Plant response rating, Corn (corn; [3])
90: Plant response rating, Barnyardgrass (barnyardgrass [1]; [4]) | Plant response rating, Crabgrass, Large (crabgrass, large; [3]) | Plant response rating, Crabgrass, Large (crabgrass, large; [4]) | Plant response rating, Foxtail, Giant (giant foxtail; [4])
20: Plant response rating, Wheat (wheat; [4]) | Plant response rating, Corn (corn; [4])
25: Plant response rating, Barnyardgrass (barnyardgrass [2])

O=C1NCC(c2ccc(F)c(F)c2)C1C(=O)Nc1cccc(F)c1Cl (racemic) [Compound 108]
10: Plant response rating, Morningglory (morningglory; [3]) | Plant response rating, Velvetleaf (velvetleaf; [3])
80: Plant response rating, Foxtail, Giant (giant foxtail; [3])
90: Plant response rating, Barnyardgrass (barnyardgrass [1]; [3]) | Plant response rating, Barnyardgrass (barnyardgrass [1]; preemergence, 1000 g ai/ha, 0 to 100 scale (0 no effect, 100 complete control)) | Plant response rating, Crabgrass, Large (crabgrass, large; [3]) | Plant response rating, Crabgrass, Large (crabgrass, large; [5]) | Plant response rating, Foxtail, Giant (giant foxtail; [5])
0: Plant response rating, Morningglory (morningglory; [5]) | Plant response rating, Pigweed (pigweed; [3]) | Plant response rating, Pigweed (pigweed; [5]) | Plant response rating, Velvetleaf (velvetleaf; [5]) | Plant response rating, Wheat (wheat; [3]) | Plant response rating, Wheat (wheat; [5]) | Plant response rating, Corn (corn; [3]) | Plant response rating, Corn (corn; [5]) | Plant response rating, Rice (rice) | Plant response rating, Sedge, Umbrella (sedge, umbrella)
50: Plant response rating, Barnyardgrass (barnyardgrass [2])
95: Plant response rating, Ducksalad (ducksalad)

O=C1NCC(c2ccc3ccccc3c2)C1C(=O)Nc1ccccc1F (racemic) [Compound 115]
90: Plant response rating, Ducksalad (ducksalad)
50: Plant response rating, Barnyardgrass (barnyardgrass [1]; [8]) | Plant response rating, Barnyardgrass (barnyardgrass [1]; preemergence, 500 g ai/ha, 0 to 100 scale (0 no effect, 100 complete control)) | Crabgrass, Large plant response rating (0 to 100 scale, 0 is no effect, 100 is complete control) (crabgrass, large; Postemergence, 500 g ai/ha)
80: Plant response rating, Crabgrass, Large (crabgrass, large; [9])
10: Plant response rating, Barnyardgrass (barnyardgrass [1]; [7]) | Foxtail, Giant plant response rating (0 to 100 scale, 0 is no effect, 100 is complete control) (giant foxtail; Postemergence, 500 g ai/ha)
70: Plant response rating, Crabgrass, Large (crabgrass, large; [6])
20: Plant response rating, Foxtail, Giant (giant foxtail; [6]) | Plant response rating, Foxtail, Giant (giant foxtail; [9]) | Plant response rating, Barnyardgrass (barnyardgrass [2])
0: Plant response rating, Barnyardgrass (barnyardgrass [1]; [6]) | Plant response rating, Crabgrass, Large (crabgrass, large; [7]) | Plant response rating, Foxtail, Giant (giant foxtail; [7]) | Plant response rating, Morningglory (morningglory; [6]) | Plant response rating, Morningglory (morningglory; [7]) | Morningglory plant response rating (0 to 100 scale, 0 is no effect, 100 is complete control) (morningglory; Postemergence, 500 g ai/ha) | Plant response rating, Morningglory (morningglory; [9]) | Plant response rating, Pigweed (pigweed; [6]) | Plant response rating, Pigweed (pigweed; [7]) | Pigweed plant response rating (0 to 100 scale, 0 is no effect, 100 is complete control) (pigweed; Postemergence, 500 g ai/ha) | Plant response rating, Pigweed (pigweed; [9]) | Plant response rating, Velvetleaf (velvetleaf; [6]) | Plant response rating, Velvetleaf (velvetleaf; [7]) | Velvetleaf plant response rating (0 to 100 scale, 0 is no effect, 100 is complete control) (velvetleaf; Postemergence, 500 g ai/ha) | Plant response rating, Velvetleaf (velvetleaf; [9]) | Plant response rating, Wheat (wheat; [6]) | Plant response rating, Wheat (wheat; [7]) | Wheat plant response rating (0 to 100 scale, 0 is no effect, 100 is complete control) (wheat; Postemergence, 500 g ai/ha) | Plant response rating, Wheat (wheat; [9]) | Plant response rating, Corn (corn; [6]) | Plant response rating, Corn (corn; [7]) | Plant response rating, Corn (corn; [8]) | Plant response rating, Corn (corn; [9]) | Plant response rating, Rice (rice) | Plant response rating, Sedge, Umbrella (sedge, umbrella)
